Test results from PubChem BioAssay AID2060623 (Molecular Pharmacology Branch, DTP, NCI, 2025).

System: 227483-062-R1-J1-PDC complex spheroids with HUVEC/MSC, viability
Experiment: Anticancer human tumor 227483-062-R1-J1-PDC patient-derived pancreatic carcinoma cell line growth inhibition [CLK]
Details: for IC50: curve of first compound; for viability, T/C: stronger effect = lower value; active means viability on the fitted dose curve at most 10% of control; inactive means the rest
Summary of the method: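 Patient-derived tumor cells grown as complex spheroids with HUVEC endothelial cells and mesenchymal stem cells, treated with drug combinations. Concentrations descend in half-log steps from near clinical Cmax, or from 10 microM if Cmax unknown.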

[1] = second compound 0.0316 µM, first compound 0.0316 µM
[2] = second compound 0.0316 µM, first compound 0.1 µM
[3] = second compound 0.0316 µM, first compound 0.316 µM
[4] = second compound 0.0316 µM, first compound 1 µM
[5] = second compound 0.0316 µM, first compound 3.16 µM
[6] = second compound 0.0316 µM, first compound 10 µM
[7] = second compound 0.1 µM, first compound 0.0316 µM
[8] = second compound 0.1 µM, first compound 0.1 µM
[9] = second compound 0.1 µM, first compound 0.316 µM
[10] = second compound 0.1 µM, first compound 1 µM
[11] = second compound 0.1 µM, first compound 3.16 µM
[12] = second compound 0.1 µM, first compound 10 µM
[13] = second compound 0.316 µM, first compound 0.0316 µM
[14] = second compound 0.316 µM, first compound 0.1 µM
[15] = second compound 0.316 µM, first compound 0.316 µM
[16] = second compound 0.316 µM, first compound 1 µM
[17] = second compound 0.316 µM, first compound 3.16 µM
[18] = second compound 0.316 µM, first compound 10 µM
[19] = second compound 1 µM, first compound 0.0316 µM
[20] = second compound 1 µM, first compound 0.1 µM
[21] = second compound 1 µM, first compound 0.316 µM
[22] = second compound 1 µM, first compound 1 µM
[23] = second compound 1 µM, first compound 3.16 µM
[24] = second compound 1 µM, first compound 10 µM
[25] = second compound 3.16 µM, first compound 0.0316 µM
[26] = second compound 3.16 µM, first compound 0.1 µM
[27] = second compound 3.16 µM, first compound 0.316 µM
[28] = second compound 3.16 µM, first compound 1 µM
[29] = second compound 3.16 µM, first compound 3.16 µM
[30] = second compound 3.16 µM, first compound 10 µM
[31] = second compound 10 µM, first compound 0.0316 µM
[32] = second compound 10 µM, first compound 0.1 µM
[33] = second compound 10 µM, first compound 0.316 µM
[34] = second compound 10 µM, first compound 1 µM
[35] = second compound 10 µM, first compound 3.16 µM
[36] = second compound 10 µM, first compound 10 µM
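Further: spheroids exposed to compounds for seven days before readout.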
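Wherever viability, T/C is given: percent of DMSO vehicle control luminescence as 100% viability.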

CC(CO)NC(=O)c1cc(-c2ccc(Cl)cc2)nn(-c2cnn(C)c2)c1=O (centres undefined) + CNC(=O)c1ccc(Nc2nc(OC3CCCC3)c3c(-c4ccc5nc(C)oc5c4)c[nH]c3n2)c(OC)c1
> 10 µM: IC50 (second compound 0.0316 µM) | IC50 (second compound 0.1 µM) | IC50 (second compound 0.316 µM) | IC50 (second compound 1 µM)
< 0.0316 µM: IC50 (second compound 3.16 µM) | IC50 (second compound 10 µM)
inactive: viability, T/C [1] 100% | viability, T/C [2] 80.3% | viability, T/C [3] 103% | viability, T/C [4] 99.4% | viability, T/C [5] 86.6% | viability, T/C [6] 84.7% | viability, T/C [7] 109% | viability, T/C [8] 102% | viability, T/C [9] 96.1% | viability, T/C [10] 91.4% | viability, T/C [11] 78.3% | viability, T/C [12] 82.6% | viability, T/C [13] 80.2% | viability, T/C [14] 90.7% | viability, T/C [15] 85.5% | viability, T/C [16] 77.5% | viability, T/C [17] 83.7% | viability, T/C [18] 70.8% | viability, T/C [19] 62.6% | viability, T/C [20] 68.2% | viability, T/C [21] 61.4% | viability, T/C [22] 54.1% | viability, T/C [23] 64.9% | viability, T/C [24] 56.9% | viability, T/C [25] 45.5% | viability, T/C [26] 50.3% | viability, T/C [27] 46% | viability, T/C [28] 45.5% | viability, T/C [29] 49% | viability, T/C [30] 38.3% | viability, T/C [31] 36.5% | viability, T/C [32] 41.8% | viability, T/C [33] 51.3% | viability, T/C [34] 37.3% | viability, T/C [35] 30.6% | viability, T/C [36] 36%

C#Cc1c(F)ccc2cc(O)cc(-c3ncc4c(N5CC6CCC(C5)N6)nc(OCC56CCCN5CC(F)C6)nc4c3F)c12 (centres undefined) + CN1CCN(c2cc(C(=O)Nc3cc4cc(-c5cnn(C)c5)ccc4cn3)ccn2)CC1
> 10 µM: IC50 (second compound 0.0316 µM) | IC50 (second compound 0.1 µM)
active: viability, T/C [13] 5.84% | viability, T/C [14] 7.37% | viability, T/C [15] 7.6% | viability, T/C [16] 7.53% | viability, T/C [17] 10% | viability, T/C [18] 6.58% | viability, T/C [19] 3.51% | viability, T/C [20] 2.53% | viability, T/C [21] 1.89% | viability, T/C [22] 3.48% | viability, T/C [23] 1.46% | viability, T/C [24] 1.87% | viability, T/C [25] 4.16% | viability, T/C [26] 4.44% | viability, T/C [27] 3.89% | viability, T/C [28] 3.43% | viability, T/C [29] 3.41% | viability, T/C [30] 2.74% | viability, T/C [31] 4.25% | viability, T/C [32] 2.63% | viability, T/C [33] 2.09% | viability, T/C [34] 4% | viability, T/C [35] 1.52% | viability, T/C [36] 1.15%
inactive: viability, T/C [1] 95.4% | viability, T/C [2] 97% | viability, T/C [3] 128% | viability, T/C [4] 114% | viability, T/C [5] 108% | viability, T/C [6] 69.7% | viability, T/C [7] 66.1% | viability, T/C [8] 70.6% | viability, T/C [9] 67.7% | viability, T/C [10] 81.6% | viability, T/C [11] 68.8% | viability, T/C [12] 52.3%
< 0.0316 µM: IC50 (second compound 0.316 µM) | IC50 (second compound 1 µM) | IC50 (second compound 3.16 µM) | IC50 (second compound 10 µM)
